Experimental data taken from US20170165317A1, “METHOD FOR MITIGATING OR ALLEVIATING SYNAPTIC AND COGNITIVE DEFICITS” (Trustees of Dartmouth College, priority 2013, published 2017).
Square brackets hold non-standard residues; d marks the D form. Peptide text beside a SMILES is read from it. * marks the point of attachment. ξ: configuration not given here. Myristoyl = CCCCCCCCCCCCCC(=O)*; dThr(3ξ) = CC(O)[C@@H](N)C(=O)O; Ile(3ξ) = CCC(C)[C@H](N)C(=O)O

What was measured:
[1] = system: hippocampal CA3 and CA1 cells from acute slices; assay: fEPSP input-output curve (basal synaptic transmission) in acute hippocampal slices exposed to protofibrillar Aβ42; assay type: cell-based, mice; details: for basal synaptic transmission in the absence of Aβ treatment: peptide alone; for Aβ-induced synaptic depression: slices preincubated with peptide 1 hour before synthetic protofibrillar Aβ
Method: Mice were anesthetized with sodium pentothal (20 mg/kg ip) and decapitated. The brain was rapidly removed to ice-cold, oxygenated, dissection solution. Coronal slices (300 μm) were made with a vibratome (LEICA VT1200S) and slices were moved to a recovery chamber containing aCSF at room temperature for at least 1.5 hour before recording.
(§1) A concentric bipolar platinum-iridium stimulation electrode and a low-resistance glass recording microelectrode filled with aCSF (3-4 MΩ resistance) were placed in CA1 stratum radiatum to record the extracellular field excitatory postsynaptic potentials (fEPSPs). For each slice, an input-output curve was recorded to compare basal synaptic transmission at different conditions. This curve was also used to set the baseline fEPSP at ≈30% (for LTP experiments) or ≈50% (for LTD experiments) of maximal slope. Baseline stimulation was delivered every 15 seconds (0.01 ms duration pulses) for at least 20 minutes before beginning the experiment to ensure stability of the response. LTP was induced by using θ-burst stimulation (4 pulses at 100 Hz, with the bursts repeated at 5 Hz and each tetanus including three 10-burst trains separated by 15 seconds). LTD was induced using 900 pulses at 1 Hz. Responses were recorded for 1 hour after induction of LTP or LTD.
Dissection solution (employed for slicing) composition: 10 mM D-glucose, 4 mM KCl, 26 mM NaHCO3, 233.7 mM sucrose, 5 mM MgCl2, 1:1000 Phenol Red. Artificial CSF (employed for recovery and recording) composition: 119 mM NaCl, 2.5 mM KCl, 1 mM NaH2PO4, 11 mM glucose, 1.2 mM MgCl2, 2.5 mM CaCl2. Osmolarity was adjusted to […].
For the first approach, protofibrillar Aβ was prepared by promoting aggregation under high-salt conditions (258 μM Aβ42, room temperature incubation (Jan, et al. (2010) Nat. Protoc. 5:1186-1209). The kinetics of Aβ42 aggregation were followed by thioflavin T fluorescence and SDS-PAGE western blot analysis with the N-terminal anti-Aβ antibody 6E10. Also, the heterogeneous nature of these Aβ42 assemblies was evidenced by electron microscopy. Synaptic function was assessed by electrophysiological recordings of field excitatory postsynaptic potential (fEPSPs) between hippocampal CA3 and CA1 cells from acute slices prepared from 5-month-old mice. The results indicated a ≈60% decrease in the magnitude of synaptic transmission (input-output curve) when slices were incubated for 2 hours in aCSF containing pathogenic protofibrillar Aβ42 species (1 μM). This decrease in the basal synaptic transmission was prevented when Aβ was added to slices that were preincubated with the PTEN inhibitor (50 nM VO-OHpic) for 1 hour (VO-OHpic and Aβ were also present in the perfusion solution during electrophysiological recordings). VO-OHpic alone had no effect on basal synaptic transmission. […] The potency and specificity of this inhibitor have been documented previously (Rosivatz, et al. (2006) ACS Chem. Biol. 1:780-790).
The effect of these peptides on Aβ-treated neurons was subsequently tested.

acute mice slices = assay: LTD of fEPSPs in acute hippocampal slices; assay type: cell-based; details: peptide 10 μM, 1-2.5 hours incubation
Method: as §1
It was posited that the PTEN-PDZ peptide would saturate PDZ interaction sites of PTEN, consequently preventing anchoring of PTEN to PDZ proteins, and in this manner it would prevent LTD.

APP/PS1 mice = assay: Novel object location task after i.c.v. infusion by osmotic minipump; assay type: in vivo, mouse; details: APP/PS1 mice, peptide 2 mM in pump, i.c.v. 3-4 weeks; p=0.027 vs vehicle-infused APP/PS1; recognition index similar to wild-type
Method: APP/PS1 and wild-type mice were anesthetized with isofluorane, and i.c.v. delivery cannulas (brain alzet kit III) were implanted with a stereotaxic frame (KOPF Instruments) at the following coordinates according to the bregma: AP, −0.5 mm; ML, 1 mm; and DV, −2.2 mm. Osmotic minipumps (Alzet) were filled with artificial cerebrospinal fluid (aCSF) with or without PTEN inhibitor VO-OHpic (2.5 μM) and equilibrated in 0.9% NaCl at 37° C. for 48 hours. They were attached to the i.c.v. cannula tubing and subcutaneously implanted at the back. After 21 days, behavioral testing was started as described herein. One month after implantation, mice were sacrificed and the brains were sliced stained with Nissl to verify the location of the cannula. Animal manipulation and data analysis was carried out blind with respect to genotype and treatment.
Novel-Object Location. This assay was chosen because it is not intrinsically stressful. This factor, in mice, crucially affects cognitive performance in other spatial learning paradigms (e.g., Morris water maze). The memory tests were composed of three phases—“habituation”, “sample” and “choice” trials. Mice were first habituated individually to an empty open-field box (35×35×15 high cm) for 30 minutes. A sample trial (object exposure) consisted of placing a mouse into the test box which contained two identical objects. […] A recognition index was calculated by dividing the total time spent exploring the displaced object by the total time spent exploring both objects during the test session. […]
It was posited that if early Aβ-induced cognitive impairment results from a general synaptic bias toward LTD events (Selkoe (2002) Science 298:789-791), dampening this form of synaptic plasticity might prevent cognitive decay. Therefore, it was determined whether in vivo inhibition of PTEN, a lipid phosphatase that is involved in LTD (Jurado, et al. (2010) EMBO J. 29:2827-2840), would rescue cognitive deficits in APP/PS1 mice. […]

Aβ42 = target: T1, Aβ42 (Homo sapiens, UniProt P05067); assay: Thioflavin-T fluorescence assay of Aβ42 aggregation; assay type: biochemical; details: 50 nM VO-OHpic or 15 nM bPV(HOpic), 37° C.
T1 construct: Lyophilized Aβ42 peptide was purchased from Keck Facility at Yale University; purchased Keck Facility at Yale University; host or cells: synthetic peptide
Method: Freshly prepared Aβ42 was prepared as described for protofibrillar Aβ42. The Thioflavin-T (ThT) assay was carried out at 37° C., within a dark chamber in a 96-well plate. Each well contained 100 ng/μL of Aβ42, 20 μM ThT and 50 nM VO-OHpic or 15 nM bPV(HOpic). Fluorescence (λex=450 nm; λem=485 nm) was followed over time in a FLUOSTAR OPTIMA (BMG LabTech) fluorescence spectrophotometer. Samples were run in triplicates. […] Thus, the observed rescue of basal synaptic transmission, LTP and cognition, with VO-OHpic was not likely due to an altered aggregation state of Aβ upon PTEN inhibition.

[2] = system: APPswe/lnd-expressing neurons; assay: Paired whole-cell recording of AMPAR-mediated EPSCs in APPswe/lnd-expressing CA1 neurons of organotypic hippocampal slices; assay type: cell-based, rat; details: 15 nM bPV(HOpic) or 50 nM VO-OHpic during expression
Method: The effect of recombinant protein expression on synaptic transmission was evaluated by simultaneous double whole-cell recordings from pairs of nearby infected and uninfected CA1 neurons, under voltage clamp, while stimulating presynaptic Schaffer collateral fibers (under this configuration, recombinant proteins are expressed exclusively in the postsynaptic neuron).
The different versions of APP (APPwt, APPswe/lnd APPMV) and EGFP were co-expressed using an internal ribosomal entry site (IRES) construct. The EGFP-tagged versions of PTEN have been described (Jurado, et al. (2010) EMBO J. 29:2827-2840). All constructs were prepared in pSinRep5 for expression using Sindbis virus. Recombinant proteins were expressed in hippocampal CA1 pyramidal neurons from organotypic slice cultures. Organotypic hippocampal slices were prepared from postnatal day 5-7 rats and cultured during 6-8 days.
The external solution (aCSF) contained 119 mM NaCl, 2.5 mM KCl, 1 mM NaH2PO4, 11 mM glucose, 26 mM NaHCO3, 4 mM MgCl2, 4 mM CaCl2, 100 μM picrotoxin and 2 μM 2-chloroadenosine, pH 7.4, and was gassed with 95% O2 and 5% CO2. […] Bipolar stimulating electrodes were placed over Schaffer collateral fibers between 250 and 300 μm from the CA1 recorded cells, and synaptic responses were evoked with single voltage pulses (200 μs, up to 30 V). […]

T1 sequence (P05067 672-713): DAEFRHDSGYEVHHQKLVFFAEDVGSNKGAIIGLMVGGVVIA

Row | SMILES | basal synaptic transmission in the absence of Aβ treatment [1] | Aβ-induced synaptic depression [1] | LTD (fEPSP slope 50-60 minutes after induction) (acute mice slices) | spatial learning task (novel object location, recognition index) (APP/PS1 mice) | Aβ-induced synaptic depression ([1]; listed as N-myristoyl-QHSQITKV) | Aβ42 aggregation (ThT fluorescence) (Aβ42) | AMPAR-mediated EPSCs in APPswe/lnd-expressing neurons relative to uninfected cells [2]
1 | CCCCCCCCCCCCCC(=O)N[C@@H](CO)C(=O)N[C@@H](C(=O)N[C@@H](Cc1c[nH]cn1)C(=O)N[C@@H](C(=O)N[C@H](C(=O)N[C@H](CCC(N)=O)C(=O)N[C@@H](CCCCN)C(=O)N[C@H](CCC(N)=O)C(=O)O)C(C)CC)C(C)O)C(C)C (stereo partly shown) [scrambled peptide, N-myristoyl-SVHTIQKQ] (Myristoyl-S[dV]H[dThr(3ξ)][Ile(3ξ)][dQ]K[dQ]-OH) | neither peptide altered basal synaptic transmission | did not | did not have any effect | – | – | – | –
2 | CCCCCCCCCCCCCC(=O)N[C@@H](CCC(N)=O)C(=O)N[C@H](Cc1c[nH]cn1)C(=O)N[C@@H](CO)C(=O)N[C@H](CCC(N)=O)C(=O)N[C@H](C(=O)N[C@@H](C(=O)N[C@@H](CCCCN)C(=O)N[C@@H](C(=O)O)C(C)C)C(C)O)C(C)CC (stereo partly shown) [PTEN-PDZ peptide, N-myristoyl-QHSQITKV] (Myristoyl-Q[dH]S[dQ][Ile(3ξ)][dThr(3ξ)]K[dV]-OH) | neither peptide altered basal synaptic transmission | prevented synaptic depression | completely blocked LTD | significant improvement | blocks Aβ-induced synaptic depression | – | –
3 | O=C1C=C/C(=C(/[O-])O)N=C1.[K+].[O-][O-].[O-][O-].[O]=[V] [bPV(HOpic)] | – | – | – | – | – | does not alter Aβ42 aggregation | no longer depressed
